System: MV-4-11 cells
Assay: Gene expression microarray analysis (Affymetrix PrimeView) and GSEA
Type: cell-based, human
Design: RFU PODN (11730768_x_at) / Fold change /veh PODN (11730768_x_at) / RFU LINC00158 (11744669_a_at) / Fold change /veh LINC00158 (11744669_a_at) / RFU DUSP10 (11751237_a_at) / Fold change /veh DUSP10 (11751237_a_at) / RFU ID3 (11757404_x_at) / Fold change /veh ID3 (11757404_x_at) / RFU PLEKHG5 (11737974_s_at) / Fold change /veh PLEKHG5 (11737974_s_at) / RFU LRRC4B (11730491_at) / Fold change /veh LRRC4B (11730491_at) / RFU GIMAP4 (11747438_a_at) / Fold change /veh GIMAP4 (11747438_a_at) / RFU KRT8 (11758183_x_at) / Fold change /veh KRT8 (11758183_x_at) / RFU CNN1 (11734310_a_at) / Fold change /veh CNN1 (11734310_a_at) / RFU VPS37D (11726825_at) / Fold change /veh VPS37D (11726825_at) / RFU C10orf10 (11716522_x_at) / Fold change /veh C10orf10 (11716522_x_at) / RFU KIR2DL2 /// KIR2DL4 /// KIR2DL5A /// KIR2DL5B /// KIR2DS1 /// KIR2DS2 /// KIR2DS3 /// KIR2DS4 /// KIR3DL3 /// KIR3DL3 /// KIR3DS1 (11738374_at) / Fold change /veh KIR2DL2 /// KIR2DL4 /// KIR2DL5A /// KIR2DL5B /// KIR2DS1 /// KIR2DS2 /// KIR2DS3 /// KIR2DS4 /// KIR3DL3 /// KIR3DL3 /// KIR3DS1 (11738374_at) / RFU C1QL1 (11718748_at) / Fold change /veh C1QL1 (11718748_at) / RFU TMPRSS4 (11747572_a_at) / Fold change /veh TMPRSS4 (11747572_a_at) / RFU HAMP (11756126_x_at) / Fold change /veh HAMP (11756126_x_at) / RFU RNFT2 (11725882_a_at) / Fold change /veh RNFT2 (11725882_a_at) / RFU NR4A2 (11747474_a_at) / Fold change /veh NR4A2 (11747474_a_at) / RFU ABCC12 (11746883_a_at) / Fold change /veh ABCC12 (11746883_a_at) / RFU TMEM136 (11760407_x_at) / Fold change /veh TMEM136 (11760407_x_at) / RFU CLDN22 /// WWC2 (11732394_at) / Fold change /veh CLDN22 /// WWC2 (11732394_at) / RFU HLA-DPB1 (11760878_x_at) / Fold change /veh HLA-DPB1 (11760878_x_at) / RFU SPINT1 (11716480_a_at) / Fold change /veh SPINT1 (11716480_a_at) / RFU GAP43 (11754022_s_at) / Fold change /veh GAP43 (11754022_s_at) / RFU A4GNT (11735810_at) / Fold change /veh A4GNT (11735810_at) / RFU PRB3 (11715151_x_at) / Fold change /veh PRB3 (11715151_x_at) / RFU TUBB4B (11761932_at) / Fold change /veh TUBB4B (11761932_at) / RFU CAPN14 (11732068_a_at) / Fold change /veh CAPN14 (11732068_a_at) / RFU TMCC2 (11721928_a_at) / Fold change /veh TMCC2 (11721928_a_at) / RFU IRGQ (11745062_a_at) / Fold change /veh IRGQ (11745062_a_at) / RFU FAM174B (11720279_a_at) / Fold change /veh FAM174B (11720279_a_at) / RFU TMPRSS4 (11748680_a_at) / Fold change /veh TMPRSS4 (11748680_a_at) / RFU FAM212B (11763350_a_at) / Fold change /veh FAM212B (11763350_a_at) / RFU PLEKHG5 (11743358_a_at) / Fold change /veh PLEKHG5 (11743358_a_at) / RFU ZSCAN30 (11745921_a_at) / Fold change /veh ZSCAN30 (11745921_a_at) / RFU CMKLR1 (11741424_a_at) / Fold change /veh CMKLR1 (11741424_a_at) / RFU LOC101060620 /// MAPK8IP1 (11723275_at) / Fold change /veh LOC101060620 /// MAPK8IP1 (11723275_at) / RFU SPTSSB (11747773_x_at) / Fold change /veh SPTSSB (11747773_x_at) / RFU PRSS12 (11739890_at) / Fold change /veh PRSS12 (11739890_at) / RFU BIN1 (11741810_x_at) / Fold change /veh BIN1 (11741810_x_at) / RFU WNT11 (11732464_a_at) / Fold change /veh WNT11 (11732464_a_at) / RFU C10orf10 (11716521_a_at) / Fold change /veh C10orf10 (11716521_a_at) / RFU C5orf56 (11738089_at) / Fold change /veh C5orf56 (11738089_at) / RFU CYB561 (11721691_x_at) / Fold change /veh CYB561 (11721691_x_at) / RFU ANKRD19P (11752326_a_at) / Fold change /veh ANKRD19P (11752326_a_at) / RFU OR2T12 /// OR2T33 /// OR2T8 (11738714_s_at) / Fold change /veh OR2T12 /// OR2T33 /// OR2T8 (11738714_s_at) / RFU VCAN (11748164_a_at) / Fold change /veh VCAN (11748164_a_at) / RFU JSRP1 (11732532_at) / Fold change /veh JSRP1 (11732532_at) / RFU KRTAP10-11 (11738290_x_at) / Fold change /veh KRTAP10-11 (11738290_x_at) / RFU MYO3A (11730013_a_at) / Fold change /veh MYO3A (11730013_a_at) / RFU EBF3 (11725865_a_at) / Fold change /veh EBF3 (11725865_a_at) / RFU CAMK2N1 (11719241_x_at) / Fold change /veh CAMK2N1 (11719241_x_at) / RFU C5orf56 (11738088_a_at) / Fold change /veh C5orf56 (11738088_a_at) / RFU OLFML3 (11715873_a_at) / Fold change /veh OLFML3 (11715873_a_at) / RFU LOC100653217 /// NTM (11731650_a_at) / Fold change /veh LOC100653217 /// NTM (11731650_a_at) / RFU MAPK11 (11762145_a_at) / Fold change /veh MAPK11 (11762145_a_at) / RFU FIZ1 (11724087_x_at) / Fold change /veh FIZ1 (11724087_x_at) / RFU OASL (11726364_x_at) / Fold change /veh OASL (11726364_x_at) / RFU SOX15 (11748057_x_at) / Fold change /veh SOX15 (11748057_x_at) / RFU CD79A (11719716_a_at) / Fold change /veh CD79A (11719716_a_at) / RFU HIST1H1D (11736915_at) / Fold change /veh HIST1H1D (11736915_at) / RFU CASKIN2 (11723855_a_at) / Fold change /veh CASKIN2 (11723855_a_at) / RFU LOC730098 (11760151_x_at) / Fold change /veh LOC730098 (11760151_x_at) / RFU OR4N2 (11742367_at) / Fold change /veh OR4N2 (11742367_at) / RFU PRRT2 (11749266_a_at) / Fold change /veh PRRT2 (11749266_a_at) / RFU SNX32 (11753110_a_at) / Fold change /veh SNX32 (11753110_a_at) / RFU CDHR5 (11726645_a_at) / Fold change /veh CDHR5 (11726645_a_at) / RFU RCAN1 (11760418_a_at) / Fold change /veh RCAN1 (11760418_a_at) / RFU FAM167A (11723789_a_at) / Fold change /veh FAM167A (11723789_a_at) / RFU FAM26E (11764081_at) / Fold change /veh FAM26E (11764081_at) / RFU ISYNA1 (11749810_s_at) / Fold change /veh ISYNA1 (11749810_s_at) / RFU ACY1 (11761880_at) / Fold change /veh ACY1 (11761880_at) / RFU 11764098_at / Fold change /veh 11764098_at / RFU SAMD14 (11745864_x_at) / Fold change /veh SAMD14 (11745864_x_at) / RFU NPB (11741838_a_at) / Fold change /veh NPB (11741838_a_at) / RFU TMPRSS6 (11731388_a_at) / Fold change /veh TMPRSS6 (11731388_a_at) / RFU KRTAP10-2 (11738614_at) / Fold change /veh KRTAP10-2 (11738614_at) / RFU ARHGAP8 /// PRR5-ARHGAP8 (11727945_x_at) / Fold change /veh ARHGAP8 /// PRR5-ARHGAP8 (11727945_x_at) / RFU KRTAP5-7 /// NADSYN1 (11734609_at) / Fold change /veh KRTAP5-7 /// NADSYN1 (11734609_at) / RFU RASL12 (11751679_a_at) / Fold change /veh RASL12 (11751679_a_at) / RFU CDKN2B (11736163_a_at) / Fold change /veh CDKN2B (11736163_a_at) / RFU PRF1 (11729649_at) / Fold change /veh PRF1 (11729649_at) / RFU, ZNF638 /// ZNF638-IT1 / Fold change vs veh, ZNF638 /// ZNF638-IT1 / RFU, PANK3 / Fold change vs veh, PANK3 / RFU, SH3YL1 / Fold change vs veh, SH3YL1 / RFU, ZEB2 / Fold change vs veh, ZEB2 / RFU, NRIP1 / Fold change vs veh, NRIP1 / RFU, PTTG1IP / Fold change vs veh, PTTG1IP / RFU, CAPN2 / Fold change vs veh, CAPN2 / RFU, MED14 / Fold change vs veh, MED14 / RFU, SNORA58 / Fold change vs veh, SNORA58 / RFU, C1orf63 / Fold change vs veh, C1orf63 / RFU, LRRFIP1 / Fold change vs veh, LRRFIP1 / RFU, NDUFAF7 / Fold change vs veh, NDUFAF7 / RFU, SLC12A2 / Fold change vs veh, SLC12A2 / RFU, IBTK / Fold change vs veh, IBTK / RFU, ESF1 / Fold change vs veh, ESF1 / Fold change vs veh, TMEM50B / RFU, TAOK1 / Fold change vs veh, TAOK1 / RFU, ACBD3 / Fold change vs veh, ACBD3 / RFU, TMA16 / Fold change vs veh, TMA16 / RFU, RWDD3 / Fold change vs veh, RWDD3 / RFU, BCAT1 / Fold change vs veh, BCAT1 / RFU, EDEM3 / Fold change vs veh, EDEM3 / RFU, TMEM33 / Fold change vs veh, TMEM33 / RFU, WDR75 / Fold change vs veh, WDR75 / RFU, AHCTF1 / Fold change vs veh, AHCTF1 / RFU, TFRC / Fold change vs veh, TFRC / RFU, ZDHHC17 / Fold change vs veh, ZDHHC17 / RFU, NOM1 / Fold change vs veh, NOM1 / RFU, ARL8B / Fold change vs veh, ARL8B / RFU, ZBTB11 / Fold change vs veh, ZBTB11 / RFU, TAMM41 / Fold change vs veh, TAMM41 / RFU, KIAA1704 /// LOC100996395 / Fold change vs veh, KIAA1704 /// LOC100996395 / RFU, ING1 / Fold change vs veh, ING1 / RFU, TRMT61B / Fold change vs veh, TRMT61B / RFU, FUBP3 / Fold change vs veh, FUBP3 / RFU, TP53 / Fold change vs veh, TP53 / RFU, TNKS2 / Fold change vs veh, TNKS2 / RFU, ZFP14 / Fold change vs veh, ZFP14 / RFU, ACTR2 / Fold change vs veh, ACTR2 / RFU, PPP3R1 / Fold change vs veh, PPP3R1 / RFU, PIK3R1 / Fold change vs veh, PIK3R1 / RFU, HNRNPA1 / Fold change vs veh, HNRNPA1 / RFU, RNF170 / Fold change vs veh, RNF170 / RFU, ZNF28 / Fold change vs veh, ZNF28 / RFU, RNGTT / Fold change vs veh, RNGTT / RFU, OGT / Fold change vs veh, OGT / RFU, BRD1 / Fold change vs veh, BRD1 / RFU, MARS / Fold change vs veh, MARS / RFU, ZNF655 / Fold change vs veh, ZNF655 / RFU, FAHD1 / Fold change vs veh, FAHD1 / RFU, BDP1 / Fold change vs veh, BDP1 / RFU, LRRCC1 / Fold change vs veh, LRRCC1 / RFU, ARID1A / Fold change vs veh, ARID1A / RFU, ZNF146 / Fold change vs veh, ZNF146 / RFU, ZNF330 / Fold change vs veh, ZNF330 / RFU, GPN3 / Fold change vs veh, GPN3 / RFU, C9orf123 / Fold change vs veh, C9orf123 / RFU, N4BP2L2 / Fold change vs veh, N4BP2L2 / RFU, ARFIP1 / Fold change vs veh, ARFIP1 / RFU, FAM179B / Fold change vs veh, FAM179B / RFU, BCL10 / Fold change vs veh, BCL10 / RFU, UHRF1BP1L / Fold change vs veh, UHRF1BP1L / RFU, BET1 / Fold change vs veh, BET1 / RFU, CNOT2 / Fold change vs veh, CNOT2 / RFU, ZNF268 / Fold change vs veh, ZNF268 / Fold change vs veh, ZNF507 / RFU, DGCR2 / Fold change vs veh, DGCR2 / RFU, WDSUB1 / Fold change vs veh, WDSUB1 / Fold change vs veh, HSP90B1 /// MIR3652 / RFU, ADSS / Fold change vs veh, ADSS / RFU, GK / Fold change vs veh, GK / RFU, ZNF148 / Fold change vs veh, ZNF148 / RFU, TAF9 / Fold change vs veh, TAF9 / RFU, SLC1A5 / Fold change vs veh, SLC1A5 / RFU, SLMO2 / Fold change vs veh, SLMO2 / RFU, ABCC4 / Fold change vs veh, ABCC4 / RFU, LOC101060439 /// RAP1B / Fold change vs veh, LOC101060439 /// RAP1B / RFU, RFX7 / Fold change vs veh, RFX7 / RFU, GTPBP10 / Fold change vs veh, GTPBP10 / RFU, CNEP1R1 / Fold change vs veh, CNEP1R1 / RFU, BIVM-ERCC5 /// ERCC5 / Fold change vs veh, BIVM-ERCC5 /// ERCC5 / RFU, ILF3 / Fold change vs veh, ILF3 / RFU 11762660_at / Fold change /veh 11762660_at / RFU VCAN (11757783_s_at) / Fold change /veh VCAN (11757783_s_at) / RFU DDX43 (11728927_at) / Fold change /veh DDX43 (11728927_at) / RFU KRT8 (11758188_x_at) / Fold change /veh KRT8 (11758188_x_at) / RFU NKD1 (11759106_at) / Fold change /veh NKD1 (11759106_at) / RFU SRD5A1 (11742802_a_at) / Fold change /veh SRD5A1 (11742802_a_at) / RFU TPSAB1 /// TPSB2 (11721975_s_at) / Fold change /veh TPSAB1 /// TPSB2 (11721975_s_at) / RFU GSTM3 (11746129_a_at) / Fold change /veh GSTM3 (11746129_a_at) / RFU IL23R (11737362_x_at) / Fold change /veh IL23R (11737362_x_at) / RFU TMEM51 (11727254_a_at) / Fold change /veh TMEM51 (11727254_a_at) / RFU PIWIL2 (11732686_x_at) / Fold change /veh PIWIL2 (11732686_x_at) / RFU ORM1 (11744905_x_at) / Fold change /veh ORM1 (11744905_x_at) / RFU CCDC152 (11743942_at) / Fold change /veh CCDC152 (11743942_at) / RFU ECM1 (11717891_a_at) / Fold change /veh ECM1 (11717891_a_at) / RFU IL23R (11748794_a_at) / Fold change /veh IL23R (11748794_a_at) / RFU TNFAIP8L3 (11732012_x_at) / Fold change /veh TNFAIP8L3 (11732012_x_at) / RFU MBOAT4 (11741988_at) / Fold change /veh MBOAT4 (11741988_at) / RFU 11764193_at / Fold change /veh 11764193_at / RFU TMEM53 (11763286_at) / Fold change /veh TMEM53 (11763286_at) / RFU MAGEB2 (11727129_at) / Fold change /veh MAGEB2 (11727129_at) / RFU TMEM200A (11744735_a_at) / Fold change /veh TMEM200A (11744735_a_at) / RFU CCDC152 (11751479_a_at) / Fold change /veh CCDC152 (11751479_a_at) / RFU FAM211A (11726209_a_at) / Fold change /veh FAM211A (11726209_a_at) / RFU RGS16 (11746705_a_at) / Fold change /veh RGS16 (11746705_a_at) / RFU VCAN (11755009_s_at) / Fold change /veh VCAN (11755009_s_at) / RFU RHOB (11743442_s_at) / Fold change /veh RHOB (11743442_s_at) / RFU RGS16 (11720943_a_at) / Fold change /veh RGS16 (11720943_a_at) / RFU RGS16 (11720944_at) / Fold change /veh RGS16 (11720944_at) / RFU, VPS4B / Fold change vs veh, VPS4B / RFU, CREB1 / Fold change vs veh, CREB1 / RFU, DNAJC13 / Fold change vs veh, DNAJC13 / RFU, GNAQ / Fold change vs veh, GNAQ / RFU, CDK5R1 / Fold change vs veh, CDK5R1 / RFU, ZRANB3 / Fold change vs veh, ZRANB3 / RFU, CUL4A / Fold change vs veh, CUL4A / RFU, CCNY / Fold change vs veh, CCNY / RFU, UFL1 / Fold change vs veh, UFL1 / RFU, COG3 / Fold change vs veh, COG3 / RFU, DIAPH2 / Fold change vs veh, DIAPH2 / RFU, SKA2 / Fold change vs veh, SKA2 / RFU, AFF3 / Fold change vs veh, AFF3 / RFU, LMF1 / Fold change vs veh, LMF1 / RFU, IPO11 / Fold change vs veh, IPO11 / RFU, DFFB / Fold change vs veh, DFFB / RFU, FOXP1 / Fold change vs veh, FOXP1 / RFU, CARD8 / Fold change vs veh, CARD8 / RFU, STRN3 / Fold change vs veh, STRN3 / RFU, ADK / Fold change vs veh, ADK / RFU, RASSF2 / Fold change vs veh, RASSF2 / RFU, WIPF1 / Fold change vs veh, WIPF1 / RFU, LARP1B / Fold change vs veh, LARP1B / RFU, RASA1 / Fold change vs veh, RASA1 / RFU, RB1 / Fold change vs veh, RB1 / RFU, PPFIA1 / Fold change vs veh, PPFIA1 / RFU, MAT2A / Fold change vs veh, MAT2A / RFU, CCT5 / Fold change vs veh, CCT5 / RFU, WDR92 / Fold change vs veh, WDR92 / RFU, CUX1 / Fold change vs veh, CUX1 / RFU, TTC7A / Fold change vs veh, TTC7A / RFU, TMEM135 / Fold change vs veh, TMEM135 / RFU, DEPTOR / Fold change vs veh, DEPTOR / RFU, CPM / Fold change vs veh, CPM / RFU, DNAJB6 / Fold change vs veh, DNAJB6 / RFU, CACNA2D3 / Fold change vs veh, CACNA2D3 / RFU, DTX4 / Fold change vs veh, DTX4 / RFU, TFCP2 / Fold change vs veh, TFCP2 / RFU, GMCL1 /// GMCL1P1 / Fold change vs veh, GMCL1 /// GMCL1P1 / RFU, AEBP2 / Fold change vs veh, AEBP2 / RFU, SNHG1 /// SNORD22 /// SNORD25 /// SNORD26 /// SNORD27 /// SNORD28 /// SNORD29 /// SNORD31 / Fold change vs veh, SNHG1 /// SNORD22 /// SNORD25 /// SNORD26 /// SNORD27 /// SNORD28 /// SNORD29 /// SNORD31 / Fold change (Aza/veh), C12orf56 (ProbeSet 11735607_a_at) / Fold change (ACY-1035/veh), C12orf56 (ProbeSet 11735607_a_at) / Fold change (Aza/veh), FGFR1OP (ProbeSet 11751329_s_at) / Fold change (ACY-1035/veh), FGFR1OP (ProbeSet 11751329_s_at) / Fold change (Aza/veh), VPS36 (ProbeSet 11739960_a_at) / Fold change (ACY-1035/veh), VPS36 (ProbeSet 11739960_a_at) / RFU SYPL1 (11715823_x_at) / Fold change /veh SYPL1 (11715823_x_at) / RFU IGFBP7 (11715501_s_at) / Fold change /veh IGFBP7 (11715501_s_at) / RFU REEP3 (11722064_at) / Fold change /veh REEP3 (11722064_at) / RFU IGLL1 (11728026_x_at) / Fold change /veh IGLL1 (11728026_x_at): dose or concentration left out as unconfirmed
Conditions: MV-4-11 cells, 48 hours

Nc1ncn([C@@H]2O[C@H](CO)[C@@H](O)[C@H]2O)c(=O)n1 [azacitidine]
Fold change /veh C1QL1 (11718748_at): 0.93

— PMC5218480 (PLoS ONE, 2017)
